Reference: ChEMBL document CHEMBL2074289, “Inhibition of the human organic anion transporter 1 by the caffeine metabolite 1-methylxanthine” (Biochem Biophys Res Commun, 2004)

Target: T1, OAT1 (Solute carrier family 22 member 6, SLC22A6) (Homo sapiens, UniProt Q4U2R8)
T1 sequence (Q4U2R8 whole entry): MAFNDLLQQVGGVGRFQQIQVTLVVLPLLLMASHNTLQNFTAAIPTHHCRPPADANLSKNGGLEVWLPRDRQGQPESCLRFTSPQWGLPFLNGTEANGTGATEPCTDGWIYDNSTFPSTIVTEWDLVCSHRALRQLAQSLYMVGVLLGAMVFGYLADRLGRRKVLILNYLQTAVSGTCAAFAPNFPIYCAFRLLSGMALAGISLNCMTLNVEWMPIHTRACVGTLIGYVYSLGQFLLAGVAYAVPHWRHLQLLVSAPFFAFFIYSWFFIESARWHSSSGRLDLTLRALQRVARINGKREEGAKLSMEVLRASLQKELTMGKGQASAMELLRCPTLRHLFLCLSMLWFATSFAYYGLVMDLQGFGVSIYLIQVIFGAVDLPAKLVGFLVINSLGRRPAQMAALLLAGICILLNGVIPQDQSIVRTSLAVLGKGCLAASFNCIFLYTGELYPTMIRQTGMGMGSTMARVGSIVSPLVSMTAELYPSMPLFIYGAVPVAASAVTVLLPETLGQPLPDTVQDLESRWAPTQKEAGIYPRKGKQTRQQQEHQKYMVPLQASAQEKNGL
Assay: TP_TRANSPORTER: inhibition of 6-Carboxyfluorescein uptake by 1-methylxanthine at a concentration of 500uM in OAT1-expressing cell
Format: functional
Set-up: scale not given: the % may be the effect or the level left
Conditions: OAT1-expressing cells, probe 6-Carboxyfluorescein; read-out: Activity

activity at 500 µM: 50%
SMILES: Cn1c(=O)[nH]c2nc[nH]c2c1=O [1-METHYLXANTHINE]
